Laboratory results: article PMC6209510 (European journal of medicinal chemistry, 2017)

Test system: P. falciparum W2
Test: not given
Format: cell-based
Details: Plasmodium falciparum, W2, 48 h, read-out: P. falciparum W2 IC50

| Compound | IC50 |
| --- | --- |
| CCN(CC)CCCC(C)Nc1ccnc2cc(Cl)ccc12 (stereo not drawn) [CQ, Chloroquine, reference compound] | 0.422 µM |

Test system: not listed separately
Test: Cytotoxicity assay on Vero cells
Format: cell-based, African green monkey
Details: African green monkey, Vero cells (mammalian kidney fibroblasts)

| Compound | IC50 at 48 h |
| --- | --- |
| c1ccc(CNCCCNCc2ccccc2)cc1 [Compound 1, N1,N3-dibenzylpropane-1,3-diamine] | > 4.76 µg/mL |
| COc1ccc(CNCCCNCc2ccc(OC)cc2)cc1 [Compound 7, N1,N3-bis(4-methoxybenzyl)propane-1,3-diamine] | > 4.76 µg/mL |
| COc1ccc(CNCCCCNCc2ccc(OC)cc2)cc1 [Compound 8, N1,N4-bis(4-methoxybenzyl)butane-1,4-diamine] | > 4.76 µg/mL |
| COc1ccc(CNCCCCCCNCc2ccc(OC)cc2)cc1 [Compound 9, N1,N6-bis(4-methoxybenzyl)hexane-1,6-diamine] | 8.32 µM |
| COc1ccc(CNCCCCCCCCNCc2ccc(OC)cc2)cc1 [Compound 10, N1,N8-bis(4-methoxybenzyl)octane-1,8-diamine] | > 4.76 µg/mL |
| COc1ccc(CNCCCCCCCCCCNCc2ccc(OC)cc2)cc1 [Compound 11, N1,N10-bis(4-methoxybenzyl)decane-1,10-diamine] | > 4.76 µg/mL |
| COc1ccc(CNCCCCCCCCCCCCNCc2ccc(OC)cc2)cc1 [Compound 12, N1,N12-bis(4-methoxybenzyl)dodecane-1,12-diamine] | > 4.76 µg/mL |
| COc1ccc(CNCCCNCc2ccc(OC)c(O)c2)cc1O [Compound 19, 5,5’-((propane-1,3-diylbis(azanediyl))bis(methylene))bis(2-methoxyphenol)] | > 4.76 µg/mL |
| COc1ccc(CNCCCCNCc2ccc(OC)c(O)c2)cc1O [Compound 20, 5,5’-((butane-1,4-diylbis(azanediyl))bis(methylene))bis(2-methoxyphenol)] | > 4.76 µg/mL |
| COc1ccc(CNCCCCCCNCc2ccc(OC)c(O)c2)cc1O [Compound 21, 5,5’-((hexane-1,6-diylbis(azanediyl))bis(methylene))bis(2-methoxyphenol)] | > 4.76 µg/mL |
| COc1ccc(CNCCCCCCCCNCc2ccc(OC)c(O)c2)cc1O [Compound 22, 5,5’-((octane-1,8-diylbis(azanediyl))bis(methylene))bis(2-methoxyphenol)] | > 4.76 µg/mL |
| COc1ccc(CNCCCCCCCCCCNCc2ccc(OC)c(O)c2)cc1O [Compound 23, 5,5’-((decane-1,10-diylbis(azanediyl))bis(methylene)) bis(2-methoxyphenol)] | > 4.76 µg/mL |
| COc1ccc(CNCCCCCCCCCCCCNCc2ccc(OC)c(O)c2)cc1O [Compound 24, 5,5’-((dodecane-1,12-diylbis(azanediyl))bis(methylene))bis(2-methoxyphenol)] | > 4.76 µg/mL |
| COc1cc(CNCCCNCc2ccc(OCc3ccccc3)c(OC)c2)ccc1OCc1ccccc1 [Compound 25, N1,N3-bis(4-(benzyloxy)-3-methoxybenzyl) propane-1,3-diamine] | 6.65 µM |
| COc1cc(CNCCCCNCc2ccc(OCc3ccccc3)c(OC)c2)ccc1OCc1ccccc1 [Compound 26, N1,N4-bis(4-(benzyloxy)-3-methoxybenzyl) butane-1,4-diamine] | > 4.76 µg/mL |
| COc1cc(CNCCCCCCNCc2ccc(OCc3ccccc3)c(OC)c2)ccc1OCc1ccccc1 [Compound 27, N1,N6-bis(4-(benzyloxy)-3-methoxybenzyl) hexane-1,6-diamine] | > 4.76 µg/mL |
| COc1cc(CNCCCCCCCCCCNCc2ccc(OCc3ccccc3)c(OC)c2)ccc1OCc1ccccc1 [Compound 29, N1,N10-bis(4-(benzyloxy)-3-methoxybenzyl) decane-1,10-diamine] | > 4.76 µg/mL |
| COc1cc(CNCCCCCCCCCCCCNCc2ccc(OCc3ccccc3)c(OC)c2)ccc1OCc1ccccc1 [Compound 30, N1,N12-bis(4-(benzyloxy)-3-methoxybenzyl) dodecane-1,12-diamine] | > 4.76 µg/mL |

Test system: Vero cells
Test: Cytotoxicity assay on Vero cells
Format: cell-based, African green monkey
Details: 48 h; tested at a maximum concentration of 8 μM; NC = not cytotoxic

| Compound | Cytotoxicity Vero cells IC50 |
| --- | --- |
| N1,N1,N10,N10-tetrakis(4-methoxybenzyl) decane-1,10 diamine [Compound 40] | NC (not cytotoxic at the maximum concentration tested (4.46 μg/mL)) |

Test system: P. falciparum D6
Test: not given
Format: cell-based, Plasmodium falciparum
Details: Plasmodium falciparum, D6, 48 h, read-out: P. falciparum D6 IC50

| Compound | IC50 |
| --- | --- |
| CCN(CC)CCCC(C)Nc1ccnc2cc(Cl)ccc12 (stereo not drawn) [CQ, Chloroquine, reference compound] | 0.083 µM |

Same assay, conditions: Vero cells vs P. falciparum D6

| Compound | SI (Selectivity Index: IC50 Vero Cells/IC50 Parasites), P. falciparum D6 |
| --- | --- |
| COc1cc(CNCCCCNCc2ccc(OCc3ccccc3)c(OC)c2)ccc1OCc1ccccc1 [Compound 26, N1,N4-bis(4-(benzyloxy)-3-methoxybenzyl) butane-1,4-diamine] | >27.4 |
| COc1cc(CNCCCCCCNCc2ccc(OCc3ccccc3)c(OC)c2)ccc1OCc1ccccc1 [Compound 27, N1,N6-bis(4-(benzyloxy)-3-methoxybenzyl) hexane-1,6-diamine] | >31.7 |

Test system: human foreskin fibroblast (HFF)
Test: Cytotoxicity on fibroblast
Format: cell-based
Details: no cytotoxicity at 10 μM

| Compound | cytotoxicity on fibroblast |
| --- | --- |
| COc1cc(CNCCCNCc2ccc(OCc3ccccc3)c(OC)c2)ccc1OCc1ccccc1 [Compound 25, N1,N3-bis(4-(benzyloxy)-3-methoxybenzyl) propane-1,3-diamine] | > 10 µM |
